Data as given in patent US11564912B2, “Methods for treating irritable bowel syndrome (IBS)” (Salix Pharmaceuticals, Inc., priority 2008, dated 2023).

What was measured:
[1] = system: species of Staphylococcus, Streptococcus, Enterococcus, and Enterobacteriaceae; conditions: cited from earlier work
[2] = oral administration; Descombe et al. 1994; cited from earlier work
[3] = system: subjects with dIBS; assay: Study of rifaximin BID in subjects with dIBS: adequate relief of IBS symptoms and bloating; assay type: in vivo, human; conditions: for Percentage of Subjects with Number of Weeks with Adequate Relief of Bloating Symptoms / Percentage of Subjects with Number of Weeks with Adequate Relief of IBS Symptoms: RFX 550 mg BID, N = 191, ITT
Protocol: This example relates to a study of rifaximin in subjects with dIBS. […] There were two measures of efficacy assessed. Subjects were questioned on the relief of overall IBS symptoms and bloating. […] The analyses defined success as a “yes” response to questions regarding adequate relief.
All subpopulations in the study responded to therapy. Baseline severity was determined using 7-point Lickert scales during screening for Abdominal Pain/Discomfort and Bloating, and the number, type (normal, hard, loose) and urgency of bowel movements.
Duration of effect was assessed in a follow-up period. Subjects that responded in the 4 week treatment period were followed for an additional 3 months.
The effect of treatment on the percentage of subjects who reported adequate relief of IBS and bloating symptoms for at least two of the final three weeks during the treatment phase (Weeks 1 to 4) is shown in Tables 3-5 and FIGS. 4-6 below.
Two measures of efficacy were assessed independently. The first was the proportion of subjects who provided a ‘yes’ response to the weekly SGA question: “In the past 7 days, have you had adequate relief of your IBS symptoms? (yes/no)”. The second endpoint was the proportion of subjects who provide a ‘yes’ response to the weekly individual symptom question: “In the past 7 days, have you had adequate relief of your symptom of bloating? (yes/no)”. Durability was based on the proportion of subjects that had adequate relief over the entire treatment phase.
It is reported herein that the severity of baseline symptoms of abdominal pain and bloating influenced the response to rifaximin treatment. The co-primary endpoints in this analysis assessed weekly yes/no responses to questions regarding adequate relief of global IBS symptoms and IBS-associated bloating. Severity of baseline IBS symptoms was evaluated as a potential confounder of clinical response and was categorized as mild/moderate or severe based on a mean score of ≤4 vs. >4 (on a 7-point scale) for bloating and abdominal pain.
The Weekly yes/no responses to questions regarding adequate relief of global IBS symptoms and IBS-associated bloating were assessed. Clinical response was defined as adequate relief for 2 of the final 3 treatment weeks (wk 2, 3, or 4). Severity of baseline IBS symptoms was evaluated as a potential confounder of clinical response and was categorized as mild/moderate or severe based on a mean score of ≤4 versus >4 (on a 7-point scale (0=not bothersome; 6=very bothersome)) for bloating and abdominal pain.

Substance: (2S,16Z,18E,20S,21S,22R, 23R,24R,25S,26S,27S,28E)-5,6,21,23,25 Pentahydroxy-27-methoxy -2,4,11,16,20,22,24,26-octamethyl-2,7-(epoxypentadeca-(1,11,13)trienimino)benzofuro (4,5-e) pyrido(1,2,-a) benzimidazole-1,15(2H)-dione,25-acetate [Rifaximin]
- In vitro antibacterial activity [1]: active
- Systemic absorption [2]: negligible
- Percentage of Subjects with Number of Weeks with Adequate Relief of Bloating Symptoms ([3]; 0 weeks): 35%
- Percentage of Subjects with Number of Weeks with Adequate Relief of IBS Symptoms ([3]; 0 weeks): 33%
- Adequate relief of IBS related symptoms (SGA) and IBS-related bloating (IBS-B) ([3]; 550 mg BID for 2 weeks): statistically significant relief
- Percentage of Subjects with Number of Weeks with Adequate Relief of Bloating Symptoms ([3]; 1 week): 14%
- Percentage of Subjects with Number of Weeks with Adequate Relief of IBS Symptoms ([3]; 1 week): 11%
- Percentage of Subjects with Number of Weeks with Adequate Relief of Bloating Symptoms ([3]; 2 weeks): 15%
- Percentage of Subjects with Number of Weeks with Adequate Relief of IBS Symptoms ([3]; 2 weeks): 15%
- Percentage of Subjects with Number of Weeks with Adequate Relief of Bloating Symptoms ([3]; 3 weeks): 20%
- Percentage of Subjects with Number of Weeks with Adequate Relief of IBS Symptoms ([3]; 3 weeks): 23%
- Percentage of Subjects with Number of Weeks with Adequate Relief of Bloating Symptoms ([3]; 4 weeks): 14%
- Percentage of Subjects with Number of Weeks with Adequate Relief of IBS Symptoms ([3]; 4 weeks): 16%
- Treatment effect (Bloating) ([3]; Age <65): 6.8%
- Treatment effect (IBS Sx) ([3]; Age <65): 6.9%
- Treatment effect (Bloating) ([3]; Age ≥65): 3.2%
- Treatment effect (IBS Sx) ([3]; Age ≥65): 19.1%
- Treatment effect (Bloating) ([3]; Diabetes History: N): 7.4%
- Treatment effect (IBS Sx) ([3]; Diabetes History: N): 9.5%
- Treatment effect (Bloating) ([3]; Diabetes History: Y): −5.6%
- Treatment effect (IBS Sx) ([3]; Diabetes History: Y): −12.7%
- Treatment effect (Bloating) ([3]; Disease Duration: 10-20 y): 11.7%
- Treatment effect (IBS Sx) ([3]; Disease Duration: 10-20 y): 20.1%
- Treatment effect (Bloating) ([3]; Disease Duration: >20 y): 35.1%
- Treatment effect (IBS Sx) ([3]; Disease Duration: >20 y): 46.6%
- Treatment effect (Bloating) ([3]; Disease Duration: ≤10 y): 2.8%
- Treatment effect (IBS Sx) ([3]; Disease Duration: ≤10 y): 1.8%
- Adequate Relief of Bloating at the End of the Treatment Phase: Failure ([3]; Female, RFX 275 2 w (N = 95)): 52 (64.2%) n (%)
- Adequate Relief of Bloating at the End of the Treatment Phase: Success ([3]; Female, RFX 275 2 w (N = 95)): 29 (35.8%) n (%)
- Adequate Relief of IBS Symptoms at the End of the Treatment Phase: Failure ([3]; Female, RFX 275 2 w (N = 95)): 46 (56.8%) n (%)
- Adequate Relief of IBS Symptoms at the End of the Treatment Phase: Success ([3]; Female, RFX 275 2 w (N = 95)): 35 (43.2%) n (%)
- Adequate Relief of Bloating at the End of the Treatment Phase: Failure ([3]; Female, RFX 550 2 w (N = 99)): 45 (61.6%) n (%)
- Adequate Relief of Bloating at the End of the Treatment Phase: Success ([3]; Female, RFX 550 2 w (N = 99)): 28 (38.4%) n (%)
- Adequate Relief of IBS Symptoms at the End of the Treatment Phase: Failure ([3]; Female, RFX 550 2 w (N = 99)): 44 (60.3%) n (%)
- Adequate Relief of IBS Symptoms at the End of the Treatment Phase: Success ([3]; Female, RFX 550 2 w (N = 99)): 29 (39.7%) n (%)
- Adequate Relief of Bloating at the End of the Treatment Phase: Failure ([3]; Female, RFX 550 2 w (N = 191)): 74 (54.0%) n (%)
- Adequate Relief of Bloating at the End of the Treatment Phase: Success ([3]; Female, RFX 550 2 w (N = 191)): 63 (46.0%) n (%)
- Adequate Relief of IBS Symptoms at the End of the Treatment Phase: Failure ([3]; Female, RFX 550 2 w (N = 191)): 66 (48.2%) n (%)
- Adequate Relief of IBS Symptoms at the End of the Treatment Phase: Success ([3]; Female, RFX 550 2 w (N = 191)): 71 (51.8%) n (%)
- odds ratio, Adequate Relief of Bloating at the End of the Treatment Phase ([3]; Female, RFX 550 2 w vs. PBO): Comparison of RFX 550 2 w vs. PBO p-value: 0.5366, odds ratio: 1.166 (0.716, 1.898)
- odds ratio, Adequate Relief of IBS Symptoms at the End of the Treatment Phase ([3]; Female, RFX 550 2 w vs. PBO): Comparison of RFX 550 2 w vs. PBO p-value: 0.7608, odds ratio: 1.078 (0.665, 1.747)
- Adequate Relief of Bloating at the End of the Treatment Phase: Failure ([3]; Female, RFX 550 4 w (N = 98)): 44 (57.9%) n (%)
- Adequate Relief of Bloating at the End of the Treatment Phase: Success ([3]; Female, RFX 550 4 w (N = 98)): 32 (42.1%) n (%)
- Adequate Relief of IBS Symptoms at the End of the Treatment Phase: Failure ([3]; Female, RFX 550 4 w (N = 98)): 42 (55.3%) n (%)
- Adequate Relief of IBS Symptoms at the End of the Treatment Phase: Success ([3]; Female, RFX 550 4 w (N = 98)): 34 (44.7%) n (%)
- Treatment effect (Bloating) ([3]; Gender: F): 3.9%
- Treatment effect (IBS Sx) ([3]; Gender: F): 3.5%
- Treatment effect (Bloating) ([3]; Gender: M): 13.6%
- Treatment effect (IBS Sx) ([3]; Gender: M): 21%
- Adequate Relief of Bloating at the End of the Treatment Phase: Failure ([3]; Male, RFX 275 2 w (N = 95)): 8 (57.1%) n (%)
- Adequate Relief of Bloating at the End of the Treatment Phase: Success ([3]; Male, RFX 275 2 w (N = 95)): 6 (42.9%) n (%)
- Adequate Relief of IBS Symptoms at the End of the Treatment Phase: Failure ([3]; Male, RFX 275 2 w (N = 95)): 9 (64.3%) n (%)
- Adequate Relief of IBS Symptoms at the End of the Treatment Phase: Success ([3]; Male, RFX 275 2 w (N = 95)): 5 (35.7%) n (%)
- Adequate Relief of Bloating at the End of the Treatment Phase: Failure ([3]; Male, RFX 550 2 w (N = 99)): 16 (61.5%) n (%)
- Adequate Relief of Bloating at the End of the Treatment Phase: Success ([3]; Male, RFX 550 2 w (N = 99)): 10 (38.5%) n (%)
- Adequate Relief of IBS Symptoms at the End of the Treatment Phase: Failure ([3]; Male, RFX 550 2 w (N = 99)): 14 (53.8%) n (%)
- Adequate Relief of IBS Symptoms at the End of the Treatment Phase: Success ([3]; Male, RFX 550 2 w (N = 99)): 12 (46.2%) n (%)
- Adequate Relief of Bloating at the End of the Treatment Phase: Failure ([3]; Male, RFX 550 2 w (N = 191)): 29 (53.7%) n (%)
- Adequate Relief of Bloating at the End of the Treatment Phase: Success ([3]; Male, RFX 550 2 w (N = 191)): 25 (46.3%) n (%)
- Adequate Relief of IBS Symptoms at the End of the Treatment Phase: Failure ([3]; Male, RFX 550 2 w (N = 191)): 25 (46.3%) n (%)
